Test results as given in ChEMBL document CHEMBL6083186, “Chromenone: An emerging scaffold in anti-Alzheimer drug discovery” (Bioorg Med Chem Lett, 2024).
Values after ≈ are worked out from the molar mass of the structure shown.

What was measured:
[1] = Antioxidant activity assessed as DPPH radical scavenging activity; assay type: functional
[2] = target: T1, Amine oxidase [flavin-containing] B (Homo sapiens, UniProt P27338); assay: Inhibition of MAO-B (unknown origin)
T1 sequence (P27338 whole entry): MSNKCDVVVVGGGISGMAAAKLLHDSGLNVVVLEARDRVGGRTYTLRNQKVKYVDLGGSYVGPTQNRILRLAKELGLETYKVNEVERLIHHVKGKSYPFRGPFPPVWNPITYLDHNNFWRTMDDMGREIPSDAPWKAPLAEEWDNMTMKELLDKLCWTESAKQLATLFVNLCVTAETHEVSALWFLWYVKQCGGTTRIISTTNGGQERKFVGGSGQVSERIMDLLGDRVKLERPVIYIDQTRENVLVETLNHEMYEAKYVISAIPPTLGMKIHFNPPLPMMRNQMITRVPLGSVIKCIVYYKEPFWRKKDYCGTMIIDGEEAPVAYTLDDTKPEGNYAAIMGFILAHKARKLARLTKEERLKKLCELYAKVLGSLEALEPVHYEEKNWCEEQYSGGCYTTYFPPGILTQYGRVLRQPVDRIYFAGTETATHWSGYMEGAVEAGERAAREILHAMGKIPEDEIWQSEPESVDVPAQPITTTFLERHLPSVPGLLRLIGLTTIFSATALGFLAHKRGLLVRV

Acetylcholinesterase [3] = target: T2, Acetylcholinesterase (Homo sapiens, UniProt P22303); assay: Inhibition of AChE (unknown origin)
T2 sequence (P22303 whole entry): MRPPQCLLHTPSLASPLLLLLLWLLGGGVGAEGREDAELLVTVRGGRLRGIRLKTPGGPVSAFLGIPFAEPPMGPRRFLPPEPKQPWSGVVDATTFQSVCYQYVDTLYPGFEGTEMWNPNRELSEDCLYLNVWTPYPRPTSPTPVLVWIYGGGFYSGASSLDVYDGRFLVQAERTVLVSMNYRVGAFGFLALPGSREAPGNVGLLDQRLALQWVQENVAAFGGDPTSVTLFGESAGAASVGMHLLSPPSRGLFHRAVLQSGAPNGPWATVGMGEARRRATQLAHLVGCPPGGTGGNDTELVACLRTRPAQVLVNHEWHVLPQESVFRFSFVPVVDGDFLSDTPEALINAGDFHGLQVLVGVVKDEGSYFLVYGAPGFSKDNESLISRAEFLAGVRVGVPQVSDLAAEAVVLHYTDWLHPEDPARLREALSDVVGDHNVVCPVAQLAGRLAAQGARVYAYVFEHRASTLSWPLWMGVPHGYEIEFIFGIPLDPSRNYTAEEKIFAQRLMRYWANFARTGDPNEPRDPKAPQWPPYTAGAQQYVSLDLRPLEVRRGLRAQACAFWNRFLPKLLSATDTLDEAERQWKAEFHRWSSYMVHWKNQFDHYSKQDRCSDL

Cholinesterase [4] = target: T3, Cholinesterase (Homo sapiens, UniProt P06276); assay: Inhibition of BuChE (unknown origin)
T3 sequence (P06276 whole entry): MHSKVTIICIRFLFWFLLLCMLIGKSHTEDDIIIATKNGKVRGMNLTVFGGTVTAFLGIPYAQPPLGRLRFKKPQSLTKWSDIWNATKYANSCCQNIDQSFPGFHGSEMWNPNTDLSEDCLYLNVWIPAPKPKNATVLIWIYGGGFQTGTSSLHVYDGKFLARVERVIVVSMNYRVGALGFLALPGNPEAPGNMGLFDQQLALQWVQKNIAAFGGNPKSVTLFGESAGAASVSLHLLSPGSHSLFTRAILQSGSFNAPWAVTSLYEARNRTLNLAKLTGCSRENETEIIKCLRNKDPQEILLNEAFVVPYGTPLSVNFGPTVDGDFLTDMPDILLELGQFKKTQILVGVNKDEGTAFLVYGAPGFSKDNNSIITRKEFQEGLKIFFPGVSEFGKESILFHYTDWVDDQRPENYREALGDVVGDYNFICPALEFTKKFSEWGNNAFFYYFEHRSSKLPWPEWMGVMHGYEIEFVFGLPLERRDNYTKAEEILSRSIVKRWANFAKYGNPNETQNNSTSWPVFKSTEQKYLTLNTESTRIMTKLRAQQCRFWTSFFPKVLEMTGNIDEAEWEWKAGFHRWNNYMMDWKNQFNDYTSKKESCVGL

Cholinesterase [5] = target: T4, Cholinesterase (Equus caballus, UniProt P81908); assay: Inhibition of equine BuChE
T4 sequence (P81908 whole entry): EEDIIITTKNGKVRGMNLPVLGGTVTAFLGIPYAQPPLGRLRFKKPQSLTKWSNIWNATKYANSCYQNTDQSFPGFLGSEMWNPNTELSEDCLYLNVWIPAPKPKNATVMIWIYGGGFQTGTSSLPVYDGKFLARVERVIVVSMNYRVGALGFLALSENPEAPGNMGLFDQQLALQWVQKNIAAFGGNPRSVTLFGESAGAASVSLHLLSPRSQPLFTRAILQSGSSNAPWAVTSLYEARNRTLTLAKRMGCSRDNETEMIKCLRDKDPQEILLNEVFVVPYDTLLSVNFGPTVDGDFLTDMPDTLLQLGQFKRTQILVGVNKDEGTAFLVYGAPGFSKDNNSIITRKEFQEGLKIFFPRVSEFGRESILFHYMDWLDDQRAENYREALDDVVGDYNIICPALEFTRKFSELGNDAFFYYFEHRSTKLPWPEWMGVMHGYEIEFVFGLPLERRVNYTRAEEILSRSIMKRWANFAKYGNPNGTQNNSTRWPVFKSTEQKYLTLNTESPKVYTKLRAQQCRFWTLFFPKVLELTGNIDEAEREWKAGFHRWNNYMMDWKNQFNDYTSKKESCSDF

Acetylcholinesterase [6] = target: T2, Acetylcholinesterase; assay: Inhibition of AChE (unknown origin) by Ellman's method
Cholinesterase [7] = target: T3, Cholinesterase; assay: Inhibition of BChE (unknown origin) by Ellman's method
Beta-secretase 1 [8] = target: T5, Beta-secretase 1 (Homo sapiens, UniProt P56817); assay: Inhibition of BACE1 (unknown origin) using Rh-EVNLDAEFK-Quencher as substrate incubated for 1 hr by FRET assay
T5 sequence (P56817 whole entry): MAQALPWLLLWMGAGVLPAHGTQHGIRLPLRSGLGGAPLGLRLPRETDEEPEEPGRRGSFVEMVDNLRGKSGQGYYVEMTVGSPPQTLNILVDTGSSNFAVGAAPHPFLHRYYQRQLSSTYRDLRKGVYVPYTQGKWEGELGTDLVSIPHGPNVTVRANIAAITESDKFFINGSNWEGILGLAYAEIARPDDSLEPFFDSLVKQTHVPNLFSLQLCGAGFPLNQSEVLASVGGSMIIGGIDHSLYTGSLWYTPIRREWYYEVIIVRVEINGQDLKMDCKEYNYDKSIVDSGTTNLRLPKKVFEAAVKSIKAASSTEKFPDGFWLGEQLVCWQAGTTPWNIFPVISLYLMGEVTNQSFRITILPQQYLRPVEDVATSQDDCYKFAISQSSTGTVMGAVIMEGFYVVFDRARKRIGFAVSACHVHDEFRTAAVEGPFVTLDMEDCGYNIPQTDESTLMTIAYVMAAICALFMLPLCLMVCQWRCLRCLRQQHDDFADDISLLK

Cholinesterase [9] = target: T4, Cholinesterase; assay: Inhibition of equine BChE using BTCh as substrate incubated for 15 mins by Ellmans method
Acetylcholinesterase [10] = target: T2, Acetylcholinesterase; assay: Inhibition of human AChE using […] as substrate incubated for 20 mins by DTNB reagent based Ellman's method
Homo sapiens = organism: Homo sapiens; assay: Selectivity index, ratio of IC50 for human BuChE to IC50 for human AChE
Acetylcholinesterase [11] = target: T2, Acetylcholinesterase; assay: Inhibition of human recombinant AChE using acetylthiocholine iodide as substrate preincubated for 15 mins followed by substrate addition measured for 10 mins DTNB reagent based Ellman's method
Cholinesterase [12] = target: T3, Cholinesterase; assay: Inhibition of human BuChE using butyrylthiocholine iodide as substrate pre-incubated for 10 mins followed by substrate addition and measured for 15 mins by Ellman's method
Beta-secretase 1 [13] = target: T5, Beta-secretase 1; assay: Inhibition of BACE1 (unknown origin)
Beta-secretase 1 [14] = target: T5, Beta-secretase 1; assay: Inhibition of BACE1 (unknown origin) by FRET assay
Acetylcholinesterase [15] = target: Acetylcholinesterase (Electrophorus electricus, UniProt O42275); assay: Inhibition of electric eel AChE
Chain of Acetylcholinesterase (Electrophorus electricus, UniProt O42275) (O42275 whole entry): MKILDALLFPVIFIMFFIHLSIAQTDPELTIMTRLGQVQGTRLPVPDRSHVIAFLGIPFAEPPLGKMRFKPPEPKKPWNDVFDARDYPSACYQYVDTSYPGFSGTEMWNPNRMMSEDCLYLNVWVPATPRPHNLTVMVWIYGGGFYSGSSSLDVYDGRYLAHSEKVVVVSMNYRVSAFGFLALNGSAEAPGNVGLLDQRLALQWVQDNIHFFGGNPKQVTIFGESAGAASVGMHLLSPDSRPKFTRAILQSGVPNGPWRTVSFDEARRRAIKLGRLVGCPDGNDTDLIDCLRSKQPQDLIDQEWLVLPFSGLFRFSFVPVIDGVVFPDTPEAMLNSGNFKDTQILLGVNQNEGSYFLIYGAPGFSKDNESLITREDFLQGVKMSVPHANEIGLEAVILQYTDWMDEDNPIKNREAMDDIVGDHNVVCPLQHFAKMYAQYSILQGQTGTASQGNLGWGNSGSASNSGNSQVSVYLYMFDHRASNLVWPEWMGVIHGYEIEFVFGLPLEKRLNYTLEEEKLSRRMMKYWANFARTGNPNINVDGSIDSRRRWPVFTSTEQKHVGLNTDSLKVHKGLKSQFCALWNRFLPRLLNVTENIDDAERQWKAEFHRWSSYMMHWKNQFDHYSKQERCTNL

Cholinesterase [16] = target: T4, Cholinesterase; assay: Inhibition of equine serum BChE using butyrylthiocholine iodide as substrate by DTNB reagent based Ellman's method

Work on `Cc1c(C)c2c(c(C)c1O)CCC(C)(C(=O)O)O2` (stereo not drawn) [TROLOX] yielded an IC50 [1] of 12.54 µg/mL (≈ 50.1 µM).
`O=C1CCOc2ccc(OCCN3CCCCCC3)cc21` gave an IC50 [2] of 1.11 µM, an IC50 (Acetylcholinesterase [3]) of 4.88 µM and an IC50 (Cholinesterase [4]) of 13.7 µM.
With `COc1cccc2cc(-c3ccc(NC(=O)c4ccc(F)cc4)cc3)c(=O)oc12` the IC50 (Cholinesterase [5]) was 0.55 µM.
In the case of `Cc1cc(=O)oc2cc(OCC(=O)N/N=C\c3ccc(C(=O)O)cc3)ccc12`, the IC50 (Acetylcholinesterase [6]) is reported as 0.802 µM.
For `O=C(O)c1cc2ccc(=O)oc2cc1O`, the IC50 (Acetylcholinesterase [6]) was 145 µM, the IC50 (Cholinesterase [7]) was 27.2 µM and the IC50 (Beta-secretase 1 [8]) was 0.34 µM.
`COc1cc2cc(-c3ccc(CN(C)Cc4ccccc4)cc3)c(=O)oc2cc1OC` gave an IC50 (Cholinesterase [9]) of 48.9 µM.
`O=C1OC2=C(O)C(O)=CCC2C=C1c1ccc(O)c(O)c1` (stereo not drawn) gave an IC50 (Acetylcholinesterase [3]) of 3.04 µM.
With `Cc1cc(=O)oc2cc(OCc3nnc(-c4ccc(O)c(O)c4)o3)ccc12` the IC50 (Acetylcholinesterase [10]) was 29.6 µM and the Ratio IC50 (Homo sapiens) was 1.55.
`O=C1O[C@H]([C@@H](O)CO)C(O)=C1O` [ASCORBIC ACID] showed an IC50 [1] of 10.52 µg/mL (≈ 59.7 µM).
Molecule `CC(C)c1cc2cc3ccc(=O)oc3cc2o1` has an IC50 (Acetylcholinesterase [11]) of 86.5 µM.
`O=c1oc2ccccc2cc1-c1ccc(Br)cc1` gave an IC50 (Acetylcholinesterase [3]) of 19.2 µM.
Work on `O=c1oc2c(O)cccc2cc1-c1ccccc1` yielded an IC50 (Cholinesterase [5]) of 13.1 µM.
Work on `COc1cccc2cc(-c3ccc(NC(=O)c4ccc(CCl)cc4)cc3)c(=O)oc12` yielded an IC50 (Acetylcholinesterase [3]) of 0.091 µM.
Molecule `COc1cc2ccc(=O)oc2cc1O` [SCOPOLETIN] has an IC50 (Acetylcholinesterase [6]) of 154 µM, an IC50 (Cholinesterase [7]) of 159 µM and an IC50 (Beta-secretase 1 [8]) of 159 µM.
`COc1ccc2ccc(=O)oc2c1` [HERNIARIN] showed an IC50 (Acetylcholinesterase [6]) of 104 µM, an IC50 (Cholinesterase [7]) of 119 µM and an IC50 (Beta-secretase 1 [8]) of 172 µM.
For `Cc1cc(=O)oc2cc(OCc3nnc(-c4cc(O)c(O)c(O)c4)o3)ccc12`, the IC50 (Acetylcholinesterase [10]) was 28.7 µM and the Ratio IC50 (Homo sapiens) was 1.65.
Molecule `Cc1cc(=O)oc2cc(OCc3nnc(Cc4cccc5c4OCO5)o3)ccc12` has an IC50 (Cholinesterase [12]) of 24 µM.
In the case of `O=c1ccc2ccc(O)cc2o1` [UMBELLIFERONE], the IC50 (Cholinesterase [7]) is reported as 105 µM and the IC50 (Beta-secretase 1 [8]) is reported as 143 µM.
`COc1cc(Cn2cc(COc3ccc4ccc(=O)oc4c3C(C)=O)nn2)cc(OC)c1` gave an IC50 (Acetylcholinesterase [6]) of 2.57 µM, an IC50 (Cholinesterase [7]) of 3.26 µM and an IC50 (Beta-secretase 1 [13]) of 10.7 µM.
`COc1cccc2cc(C(=O)NCc3cnnn3Cc3ccccc3Cl)c(=O)oc12` gave an IC50 (Beta-secretase 1 [14]) of 96.1 µM and an IC50 (Acetylcholinesterase [15]) of 15.4 µM.
`O=c1c(O)c(-c2ccc(O)c(O)c2)oc2cc(O)cc(O)c12` [QUERCETIN] gave an IC50 [1] of 3.18 µg/mL (≈ 10.5 µM).
`O=c1ccc2cc(O)c(O)cc2o1` [ESCULETIN] showed an IC50 (Acetylcholinesterase [6]) of 6.13 µM and an IC50 (Cholinesterase [7]) of 8.66 µM.
`COc1cc2oc(=O)ccc2cc1O` [ISOSCOPOLETIN] showed an IC50 (Acetylcholinesterase [6]) of 174 µM, an IC50 (Cholinesterase [7]) of 110 µM and an IC50 (Beta-secretase 1 [8]) of 146 µM.
`O=C(NCCCN1CCOCC1)c1cc2ccc(OCc3cn(Cc4cccc(Cl)c4Cl)nn3)cc2oc1=O` showed an IC50 (Beta-secretase 1 [13]) of 21.1 µM and an IC50 (Cholinesterase [16]) of 1.71 µM.
Molecule `COc1cc(OC)c2c(=O)c(OCCCCn3cc(CN4C(=O)C(=O)c5ccccc54)nn3)c(-c3ccc(OC)c(OC)c3)oc2c1` has an IC50 (Cholinesterase [7]) of 11.2 µM.
